Laboratory results published in patent US10750743B2, “Pyridazinone herbicides” (E.I. DU PONT DE NEMOURS AND COMPANY, priority 2015, dated 2020).

Columns and labels:
Type in all cases: in vivo
[1] = system: sedge, umbrella (small-flower umbrella sedge, Cyperus difformis); experiment: Test B flooded paddy test, visual rating; details: Flood, 250 g ai/ha, applied to paddy water, rated after 13 to 15 d
Outline: (§1)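 Ratings use a 0-100 visual scale, where 100 is complete control, and compare treated plants with controls after 13 to 15 d of greenhouse growth. Compound went straight into paddy water kept 3 cm over the soil surface, applied to seedlings at the 2-leaf stage.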

[2] = system: ducksalad (Heteranthera limosa); experiment: Test B flooded paddy test, visual rating; details: Flood, 250 g ai/ha, applied to paddy water, rated after 13 to 15 d
Outline: as §1

[3] = system: barnyardgrass (Echinochloa crus-galli); experiment: Test B flooded paddy test, visual rating; details: Flood, 250 g ai/ha, applied to paddy water, rated after 13 to 15 d
Outline: as §1

rice (Oryza sativa) = experiment: Test B flooded paddy test, visual rating; details: Flood, 250 g ai/ha, applied to paddy water, rated after 13 to 15 d
Outline: as §1

[4] = system: foxtail, giant (giant foxtail, Setaria faberii); experiment: Test A postemergence application, visual injury rating; details: for Plant response rating (0 to 100 scale), Foxtail, Giant: 31 g ai/ha, 0 is no effect, 100 is complete control; for Foxtail, Giant plant response rating: 125 g ai/ha, 0 to 100 scale, 0 no effect, 100 complete control
Outline: (§2)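 Injury ratings, 0 (no effect) to 100 (complete control), were scored visually versus untreated plants roughly 10 d after treatment under greenhouse conditions. Treatments used surfactant-containing solvent formulations, sprayed onto soil preemergence or onto one- to two-leaf seedlings (2-10 cm) postemergence, grown in a loam-sand mix.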

[5] = system: galium (catchweed bedstraw, Galium aparine); experiment: as above; details: for Plant response rating (0 to 100 scale), Galium: 31 g ai/ha, 0 is no effect, 100 is complete control; for Galium plant response rating: 125 g ai/ha, 0 to 100 scale, 0 no effect, 100 complete control
Outline: as §2

[6] = system: blackgrass (Alopecurus myosuroides); experiment: as above; details: 0 to 100 scale, 0 no effect, 100 complete control
Outline: as §2

kochia (Kochia scoparia) [7] = experiment: as above; details: for Plant response rating (0 to 100 scale), Kochia: 31 g ai/ha, 0 is no effect, 100 is complete control; for Kochia plant response rating: 125 g ai/ha, 0 to 100 scale, 0 no effect, 100 complete control
Outline: as §2

corn (Zea mays) = experiment: as above; details: for Plant response rating (0 to 100 scale), Corn: 31 g ai/ha, 0 is no effect, 100 is complete control; for Corn plant response rating: 125 g ai/ha, 0 to 100 scale, 0 no effect, 100 complete control
Outline: as §2

[8] = system: barnyardgrass (Echinochloa crus-galli); experiment: as above; details: 0 to 100 scale, 0 no effect, 100 complete control
Outline: as §2

[9] = system: ryegrass, It. (Italian ryegrass, Lolium multiflorum); experiment: as above; details: for Plant response rating (0 to 100 scale), Ryegrass, It.: 31 g ai/ha, 0 is no effect, 100 is complete control; for Ryegrass, It. plant response rating: 125 g ai/ha, 0 to 100 scale, 0 no effect, 100 complete control
Outline: as §2

[10] = system: wheat (Triticum aestivum); experiment: as above; details: for Plant response rating (0 to 100 scale), Wheat: 31 g ai/ha, 0 is no effect, 100 is complete control; for Wheat plant response rating: 125 g ai/ha, 0 to 100 scale, 0 no effect, 100 complete control
Outline: as §2

[11] = system: pigweed (Amaranthus retroflexus); experiment: as above; details: for Plant response rating (0 to 100 scale), Pigweed: 31 g ai/ha, 0 is no effect, 100 is complete control; for Pigweed plant response rating: 125 g ai/ha, 0 to 100 scale, 0 no effect, 100 complete control
Outline: as §2

[12] = system: ragweed (common ragweed, Ambrosia elatior); experiment: as above; details: for Plant response rating (0 to 100 scale), Ragweed: 31 g ai/ha, 0 is no effect, 100 is complete control; for Ragweed plant response rating: 125 g ai/ha, 0 to 100 scale, 0 no effect, 100 complete control
Outline: as §2

[13] = system: foxtail, giant (giant foxtail, Setaria faberii); experiment: Test A preemergence, directed soil spray, visual injury rating; details: 0 is no effect, 100 is complete control
Outline: as §2

kochia (Kochia scoparia) [14] = experiment: as above; details: 0 is no effect, 100 is complete control
Outline: as §2

[15] = system: barnyardgrass (Echinochloa crus-galli); experiment: as above; details: 0 is no effect, 100 is complete control
Outline: as §2

[16] = system: ryegrass, It. (Italian ryegrass, Lolium multiflorum); experiment: as above; details: 0 is no effect, 100 is complete control
Outline: as §2

[17] = system: pigweed (Amaranthus retroflexus); experiment: as above; details: 0 is no effect, 100 is complete control
Outline: as §2

[18] = system: ragweed (common ragweed, Ambrosia elatior); experiment: as above; details: 0 is no effect, 100 is complete control
Outline: as §2

| SMILES | Sedge, Umbrella plant response rating (0 to 100 scale, 0 is no effect, 100 is complete control) [1] | Ducksalad plant response rating (0 to 100 scale, 0 is no effect, 100 is complete control) [2] | Barnyardgrass plant response rating (0 to 100 scale, 0 is no effect, 100 is complete control) [3] | Rice plant response rating (0 to 100 scale, 0 is no effect, 100 is complete control) (rice (Oryza sativa)) | Plant response rating (0 to 100 scale), Foxtail, Giant [4] | Foxtail, Giant plant response rating [4] | Plant response rating (0 to 100 scale), Galium [5] | Galium plant response rating [5] | Blackgrass plant response rating ([6]; 31 g ai/ha) | Blackgrass plant response rating ([6]; 125 g ai/ha) | Plant response rating (0 to 100 scale), Kochia (kochia (Kochia scoparia) [7]) | Kochia plant response rating (kochia (Kochia scoparia) [7]) | Plant response rating (0 to 100 scale), Corn (corn (Zea mays)) | Corn plant response rating (corn (Zea mays)) | Barnyardgrass plant response rating ([8]; 31 g ai/ha) | Barnyardgrass plant response rating ([8]; 125 g ai/ha) | Plant response rating (0 to 100 scale), Ryegrass, It. [9] | Ryegrass, It. plant response rating [9] | Plant response rating (0 to 100 scale), Wheat [10] | Wheat plant response rating [10] | also measured |
| --- | --- | --- | --- | --- | --- | --- | --- | --- | --- | --- | --- | --- | --- | --- | --- | --- | --- | --- | --- | --- | --- |
| Cn1nc(Cl)c(O)c(-c2ccc(F)c3ccoc23)c1=O [Compound 70] | 0 | 0 | 0 | 0 | 10 | 40 | 50 | 90 | 0 | 30 | 40 | 90 | 0 | 0 | 10 | 90 | 70 | 100 | 0 | 0 | Plant response rating (0 to 100 scale), Pigweed [11]: 10; Pigweed plant response rating [11]: 70; Plant response rating (0 to 100 scale), Ragweed [12]: 10; Ragweed plant response rating [12]: 90; Plant response rating (0 to 100 scale), Foxtail, Giant ([13]; 31 g ai/ha): 10; Plant response rating (0 to 100 scale), Foxtail, Giant ([13]; 125 g ai/ha): 50; Plant response rating (0 to 100 scale), Kochia (kochia (Kochia scoparia) [14]; 31 g ai/ha): 0; Plant response rating (0 to 100 scale), Kochia (kochia (Kochia scoparia) [14]; 125 g ai/ha): 40; Plant response rating (0 to 100 scale), Barnyardgrass ([15]; 31 g ai/ha): 40; Plant response rating (0 to 100 scale), Barnyardgrass ([15]; 125 g ai/ha): 90; Plant response rating (0 to 100 scale), Ryegrass, It. ([16]; 31 g ai/ha): 70; Plant response rating (0 to 100 scale), Ryegrass, It. ([16]; 125 g ai/ha): 100; Plant response rating (0 to 100 scale), Pigweed ([17]; 31 g ai/ha): 10; Plant response rating (0 to 100 scale), Pigweed ([17]; 125 g ai/ha): 30; Plant response rating (0 to 100 scale), Ragweed ([18]; 31 g ai/ha): 0; Plant response rating (0 to 100 scale), Ragweed ([18]; 125 g ai/ha): 0 |
| Cc1cc2c(-c3c(O)c(C)nn(C)c3=O)c(C)ccc2s1 [Compound 72] | 0 | 0 | 0 | 0 | 30 | 60 | 90 | 100 | 40 | 80 | 70 | 90 | 0 | 0 | 30 | 40 | 90 | 100 | 0 | 0 | Plant response rating (0 to 100 scale), Pigweed [11]: 90; Pigweed plant response rating [11]: 90; Plant response rating (0 to 100 scale), Ragweed [12]: 70; Ragweed plant response rating [12]: 90; Plant response rating (0 to 100 scale), Foxtail, Giant ([13]; 31 g ai/ha): 0; Plant response rating (0 to 100 scale), Foxtail, Giant ([13]; 125 g ai/ha): 40; Plant response rating (0 to 100 scale), Kochia (kochia (Kochia scoparia) [14]; 31 g ai/ha): 0; Plant response rating (0 to 100 scale), Kochia (kochia (Kochia scoparia) [14]; 125 g ai/ha): 40; Plant response rating (0 to 100 scale), Barnyardgrass ([15]; 31 g ai/ha): 0; Plant response rating (0 to 100 scale), Barnyardgrass ([15]; 125 g ai/ha): 30; Plant response rating (0 to 100 scale), Ryegrass, It. ([16]; 31 g ai/ha): 90; Plant response rating (0 to 100 scale), Ryegrass, It. ([16]; 125 g ai/ha): 100; Plant response rating (0 to 100 scale), Pigweed ([17]; 31 g ai/ha): 70; Plant response rating (0 to 100 scale), Pigweed ([17]; 125 g ai/ha): 70; Plant response rating (0 to 100 scale), Ragweed ([18]; 31 g ai/ha): 70; Plant response rating (0 to 100 scale), Ragweed ([18]; 125 g ai/ha): 90 |
